Here are results for 19 compounds from ChEMBL document CHEMBL3217660, “Design, synthesis and antiproliferative activity of urocanic-chalcone hybrid derivatives” (Medchemcomm, 2011).

Assay [1] has as its system HT-29. The assay can be described thus: Inhibition of human HT-29 cell proliferation. It counts as functional, cell-based.
Assay [2] has as its system HCT-116. Briefly: Inhibition of human HCT116 cell proliferation. It is filed as functional, cell-based.
Assay [3] deals with A2780. Briefly: Inhibition of human A2780 cell proliferation. It is filed as functional, cell-based.
The target of assay [4] is Tubulin (Homo sapiens) (UniProt P68371+Q9H4B7+P0DPH7+P68366+Q13509+Q71U36+P04350+Q3ZCM7+P07437+P68363+Q9BQE3+Q6PEY2+Q13885+Q9BVA1+Q9BUF5). The assay can be described thus: Induction of tubulin (unknown origin) polymerization. It counts as protein-complex assay.
Assay [5] relates to HT-29. The assay can be described thus: Antiproliferative activity against human HT-29 cells assessed as inhibition of cell proliferation after 3 days by MTS assay. It is filed as functional, cell-based. The conditions noted are these: HT-29, 72 h. Background: Formazan colour is commonly taken as a measure of viable cells.
Assay [6] deals with MDA-MB-231. The assay can be described thus: Antiproliferative activity against human MDA-MB-231 cells assessed as inhibition of cell proliferation after 3 days by MTS assay. The conditions noted are these: MDA-MB-231, 72 h. It is filed as functional, cell-based.
Assay [7] concerns LNCaP. Briefly: Antiproliferative activity against human LNCAP cells assessed as inhibition of cell proliferation after 3 days by MTS assay. It is filed as functional, cell-based. The note with it: 72 h.
Assay [8] in a line: Antiproliferative activity against human FEK4 cells assessed as inhibition of cell proliferation after 3 days by MTS assay. It is filed as cell-based. The note with it: FEK4, 72 h.
For assay [9], the system named is K562. Briefly: Inhibition of human K562 cell proliferation. It counts as functional, cell-based.

In the case of `CC1=CC[C@H](C(C)C)[C@H]2C[C@H](OC(=O)C(C)(C)C)[C@@H](O)/C=C\C[C@@H](OC(=O)/C=C/c3cn(C)cn3)C[C@@H]12`, the IC50 (commonly the concentration that gives 50% inhibition) in assay [1] stood at 5 µM; in assay [2], 4 µM; in assay [3], 4 µM; in assay [5], 5 µM. The compound also returned an ED90 in [4] of 1.8 µM.

For `COc1cc(C(=O)/C=C/c2nccn2C)cc(OC)c1OC`, the concentration for half-maximal inhibition (IC50) in assay [5] was determined as 4.2 µM; in assay [6] it was 4.9 µM; in assay [7], 11 µM; in [8] it was 17.5 µM.

In turn, `CC(=O)O[C@H]1C(=O)[C@@]2(C)[C@H]([C@H](OC(=O)c3ccccc3)[C@]3(O)C[C@H](OC(=O)[C@H](O)[C@@H](NC(=O)c4ccccc4)c4ccccc4)C(C)=C1C3(C)C)[C@]1(OC(C)=O)CO[C@@H]1C[C@@H]2O` [PACLITAXEL] showed an ED90 in assay [4] of 0.5 µM. Also, the half-inhibitory concentration (IC50) in [5] was less than 0.005 µM.

Consider `COc1ccc(O[C@@H]2/C=C\CC(O)C[C@@H]3[C@@H](C(C)C)CC=C(C)[C@@H]3C[C@@H]2OC(=O)/C=C/c2cn(C)cn2)cc1` (single isomer, unassigned), for which the IC50 is 0.9 µM in assay [2], 1.9 µM in assay [3] and 2.3 µM in assay [9]. Also, the ED90 in assay [4] turned out to be 0.5 µM.

Regarding `COc1ccc(C(=O)/C=C/c2ccc[nH]2)cc1OC`, the IC50 in assay [5] worked out at 86 µM; in assay [6], 102 µM; in [7] it was 105 µM; in assay [8], 135 µM.

With `COc1cc(C(=O)/C=C/c2ncc[nH]2)cc(OC)c1OC`, the IC50 was 5 µM in assay [5], 4.9 µM in [6], 17.1 µM in assay [7] and 28.6 µM in assay [8].

For the compound `O[C@H]1C/C=C\CC[C@@H]2C=C[C@H]1O2`, the ED90 in assay [4] turned out to be 3 µM.

For `COc1cc(C(=O)/C=C/c2cnc[nH]2)cc(OC)c1OC`, the IC50 was determined as 19.5 µM in assay [5], 22.9 µM in assay [6], 48.1 µM in [7] and 53.2 µM in assay [8].

Turning to `COc1cc(C(=O)/C=C/c2cn(C)cn2)cc(OC)c1OC`, the IC50 in assay [5] was 2.9 µM; in assay [6] it was 4.8 µM; in assay [7], 48.4 µM; in assay [8], 85 µM.

Consider `COc1ccc(C(=O)/C=C/c2cccn2C)cc1`, for which the IC50 was determined as 61.8 µM in assay [5], 53.5 µM in [6], 75.5 µM in assay [7] and 188 µM in [8].

For `COc1cc(C(=O)/C=C/c2cccn2C)cc(OC)c1OC`, the IC50 in assay [5] stood at 12.5 µM; in assay [6] it was 18 µM; in [7], 69.5 µM; in assay [8], 118 µM.

Take `COc1ccc(C(=O)/C=C/c2cnc[nH]2)cc1OC`: the IC50 in assay [5] came out at 37.9 µM; in assay [6] it was 18.2 µM; in assay [7], 46.2 µM; in assay [8], 84.2 µM.

As for `COc1cc(C(=O)CCc2cnc[nH]2)cc(OC)c1OC`, the IC50 in assay [5] is more than 500 µM; in assay [6] it was 223 µM; in assay [7], 368 µM; in [8] it was more than 500 µM.

With `COc1cc(C(=O)/C=C/c2cncn2C)cc(OC)c1OC`, the IC50 worked out at 15.9 µM in assay [5], 16.9 µM in assay [6], 30.6 µM in assay [7] and 49.9 µM in assay [8].

Consider `COc1ccc(C(=O)/C=C/c2ccc[nH]2)cc1`, for which the concentration for half-maximal inhibition (IC50) in assay [5], in [6], in assay [7] and in assay [8] was more than 500 µM throughout.

Take `COc1cccc2c1C(=O)c1c(O)c3c(c(O)c1C2=O)C[C@@](O)(C(=O)CO)C[C@@H]3O[C@H]1C[C@H](N)[C@H](O)[C@H](C)O1` [DOXORUBICIN]: the figures for the concentration for half-maximal inhibition (IC50) in [5], in [6] and in [7] were 0.164 µM, 0.12 µM and 0.154 µM, respectively.

In assay [4], `Cn1cnc(/C=C/C(=O)O[C@H]2C/C=C\CC[C@@H]3C=C[C@H]2O3)c1` showed an ED90 of 6 µM.

Turning to `COc1cc(C(=O)/C=C/c2ccc[nH]2)cc(OC)c1OC`, the 50% inhibitory concentration (IC50) in [5] worked out at 43 µM; in assay [6], 49.9 µM; in assay [7], 59.9 µM; in [8] it was 156 µM.

Take `COc1ccc(C(=O)/C=C/c2cccn2C)cc1OC`: the IC50 amounted to 60.4 µM in assay [5], 42.8 µM in assay [6], 56.3 µM in [7] and 162 µM in [8].
